Measured values reported in publication PMC9569468 (International Journal of Molecular Sciences, 2022).
Read-outs that look alike come from different tables or passages of the source.

Experiments:
[1] = test system: SARS-CoV-2; settings: read-out: IC50 of FDA-approved drugs applied in COVID-19 treatment protocols; cited from earlier work
[2] = test system: SARS-CoV-2 "NRC-03-nhCoV"; assay: microbe, parasite or virus in culture; assay type: cell-based
[3] = test system: MERS-CoV "NRCE-HKU270"; assay: microbe, parasite or virus in culture; assay type: cell-based; settings: for IC50: Middle East respiratory syndrome-related coronavirus, Vero C1008, read-out: Antiviral Activities MERS-CoV IC50 (µM)
[4] = in vitro; settings: African green monkey
[5] = test system: NRC-03-nhCoV in Vero-E6 cells; assay: microbe, parasite or virus in culture; assay type: cell-based, SARS-CoV-2; settings: Severe acute respiratory syndrome coronavirus 2, Vero C1008, read-out: Half maximal inhibitory concentration (IC50) against NRC-03-nhCoV
[6] = Severe acute respiratory syndrome coronavirus 2, Vero C1008, read-out: Antiviral Activities SARS-CoV-2 IC50 (µM)
[7] = read-out: Antiviral Activities SARS-CoV-2 IC50

Row | SMILES | IC50 [1] [µM] | Antiviral Activities SARS-CoV-2 SI (selectivity index) [2] | IC50 [2, 6] [µM] | Antiviral Activities MERS-CoV SI (selectivity index) [3] | IC50 [3] [µM] | melting point [°C] | CC50 ([4]; Cytotoxicity (CC50, µM)) [µM] | IC50 [2, 7] [µM] | IC50 [5] [µM] | CC50 ([4]; Half maximal cytotoxic concentration (CC50)) [µM]
1 | CC[C@H]1OC(=O)[C@H](C)[C@@H](O[C@H]2C[C@@](C)(OC)[C@@H](O)[C@H](C)O2)[C@H](C)[C@@H](O[C@@H]2O[C@H](C)C[C@H](N(C)C)[C@H]2O)[C@](C)(O)C[C@@H](C)CN(C)[C@H](C)[C@@H](O)[C@]1(C)O [Azithromycin] | 2.12 |  |  |  |  |  |  |  |  | 
2 | O=C1Nc2ccccc2[C@]12C[C@@H](S(=O)(=O)c1ccccc1)[C@H]1CCCN12 [Compound 4a, (1’R,3R,7a’R)-1’-(Phenylsulfonyl)-1’,2’,5’,6’,7’,7a’-hexahydrospiro[indoline-3,3’-pyrrolizin]-2-one] |  | 11.24 | 29 | 5.25 | 62 | 298 | 326 |  |  | 
3 | O=C1Nc2ccc(Cl)cc2[C@]12C[C@@H](S(=O)(=O)c1ccccc1)[C@H]1CSCN12 [Compound 4b, (3R,7’R,7a’R)-5-Chloro-7’-(phenylsulfonyl)-1’,6’,7’,7a’-tetrahydro-3’H-spiro[indoline-3,5’-pyrrolo [1,2-c]thiazole]-2-one] |  | 5.38 | 194 | 9.95 | 105 | 282 | 1040 |  |  | 
4 | O=C1Nc2ccc([N+](=O)[O-])cc2[C@]12C[C@@H](S(=O)(=O)c1ccccc1)[C@H]1C[C@H](O)CN12 [Compound 4c, (1’R,3R,6’S,7a’R)-6’-Hydroxy-5-nitro-1’-(phenylsulfonyl)-1’,2’,5’,6’,7’,7a’-hexahydrospiro[indoline-3,3’-pyrrolizin]-2-one] |  |  | 17 | 16.84 | 65 |  | 1100 | 18 | 8.79 | 
5 | O=C1Nc2ccc(Br)cc2[C@]12C[C@@H](S(=O)(=O)c1ccccc1)[C@H]1C[C@H](O)CN12 [Compound 4d, (1’R,3R,6’S,7a’R)-5-Bromo-6’-hydroxy-1’-(phenylsulfonyl)-1’,2’,5’,6’,7’,7a’-hexahydrospiro[indoline-3,3’-pyrrolizin]-2-one] |  | 8.58 | 24 | 8.95 | 23 | 220 | 206 |  |  | 
6 | O=C1Nc2ccc([N+](=O)[O-])cc2[C@]12C[C@@H](S(=O)(=O)c1ccccc1)[C@H]1CSCN12 [Compound 4e, (3R,7’R,7a’R)-5-Nitro-7’-(phenylsulfonyl)-1’,6’,7’,7a’-tetrahydro-3’H-spiro[indoline-3,5’-pyrrolo [1,2-c]thiazole]-2-one] |  | 17 | 18 | 3.90 | 74 | 95 | 289 | 17 |  | 
7 | COc1ccc2c(c1)[C@]1(C[C@@H](S(=O)(=O)c3ccccc3)[C@H]3CSCN31)C(=O)N2 [Compound 4f, (3R,7’R,7a’R)-5-Methoxy-7’-(phenylsulfonyl)-1’,6’,7’,7a’-tetrahydro-3’H-spiro[indoline-3,5’-pyrrolo [1,2-c]thiazole]-2-one] |  | <1 | 2250 | 3.92 | 88 | 105 | 345 |  |  | 
8 | O=C1Nc2ccc(Cl)cc2[C@]12C[C@@H](S(=O)(=O)c1ccccc1)[C@H]1CCCN12 [Compound 4g, (1’R,3R,7a’R)-5-Chloro-1’-(phenylsulfonyl)-1’,2’,5’,6’,7’,7a’-hexahydrospiro[indoline-3,3’-pyrrolizin]-2-one] |  | 1 | 405 | 3.97 | 101 | 254 | 405 |  |  | 
9 | COc1ccc2c(c1)[C@]1(C[C@@H](S(=O)(=O)c3ccccc3)[C@H]3CCCN31)C(=O)N2 [Compound 4h, (1’R,3R,7a’R)-5-Methoxy-1’-(phenylsulfonyl)-1’,2’,5’,6’,7’,7a’-hexahydrospiro[indoline-3,3’-pyrrolizin]-2-one] |  | 15.43 | 37 | 38.06 | 15 | 240 | 571 |  |  | 
10 | O=C1Nc2ccccc2[C@]12C[C@@H](S(=O)(=O)c1ccccc1)[C@H]1CSCN12 [Compound 4i, (3R,7’R,7a’R)-7’-(Phenylsulfonyl)-1’,6’,7’,7a’-tetrahydro-3’H-spiro[indoline-3,5’-pyrrolo [1,2-c]thiazole]-2-one] |  |  | 34 |  | 11 |  | 1990 |  | 14.7 | 
11 | O=C1Nc2ccc(Br)cc2[C@]12C[C@@H](S(=O)(=O)c1ccccc1)[C@H]1CCCN12 [Compound 4j, (1’R,3R,7a’R)-5-Bromo-1’-(phenylsulfonyl)-1’,2’,5’,6’,7’,7a’-hexahydrospiro[indoline-3,3’-pyrrolizin]-2-one] |  | 1.01 | 197 | <1 | 376 | 250 | 200 |  |  | 
12 | CN1C(=O)[C@@]2(C[C@@H](S(=O)(=O)c3ccccc3)[C@H]3CCCN32)c2ccccc21 [Compound 4k, (1’R,3R,7a’R)-1-Methyl-1’-(phenylsulfonyl)-1’,2’,5’,6’,7’,7a’-hexahydrospiro[indoline-3,3’-pyrrolizin]-2-one] |  |  | 27 | 13.37 | 66 |  | 883 |  | 5.98 | 882
13 | O=C1N(CCBr)c2ccccc2[C@]12C[C@@H](S(=O)(=O)c1ccccc1)[C@H]1CCCN12 [Compound 4l, (1’R,3R,7a’R)-1-(2-Bromoethyl)-1’-(phenylsulfonyl)-1’,2’,5’,6’,7’,7a’-hexahydrospiro[indoline-3,3’-pyrrolizin]-2-one] |  | 1.92 | 107 | 1.41 | 146 | 70 | 206 |  |  | 
14 | O=C1Nc2cc(Cl)ccc2[C@]12C[C@@H](S(=O)(=O)c1ccccc1)[C@H]1CCCN12 [Compound 4m] |  | <1 | 305 | 1.17 | 191 |  | 225 |  |  | 
15 | O=C1Nc2cc(Cl)ccc2[C@]12C[C@@H](S(=O)(=O)c1ccccc1)[C@H]1CSCN12 [Compound 4n, (3R,7’R,7a’R)-6-Chloro-7’-(phenylsulfonyl)-1’,6’,7’,7a’-tetrahydro-3’H-spiro[indoline-3,5’-pyrrolo [1,2-c]thiazole]-2-one] |  |  | 667 |  | 15 |  | 222 |  |  | 
16 | CCC(CC)COC(=O)[C@H](C)N[P@](=O)(OC[C@H]1O[C@@](C#N)(c2ccc3c(N)ncnn23)[C@H](O)[C@@H]1O)Oc1ccccc1 [Remdesivir, reference compound] |  | 70.40 | 6.72 | 172.66 | 2.74 |  | 473 |  | 6.72 | 
17 | NC(=O)c1ncn([C@@H]2O[C@H](CO)[C@@H](O)[C@H]2O)n1 [Ribavirin] | 70 |  |  |  |  |  |  |  |  | 
18 | CC(C)c1nc(CN(C)C(=O)N[C@H](C(=O)N[C@@H](Cc2ccccc2)C[C@H](O)[C@H](Cc2ccccc2)NC(=O)OCc2cncs2)C(C)C)cs1 [Ritonavir] | ≥ 100 |  |  |  |  |  |  |  |  | 
